Converted amounts (≈) assume the structure as drawn. Read-outs that look alike come from different tables or passages of the source.

A short description of assay [1]: Changes in MIC under different conditions: broth MIC. It counts as cell-based. The note with it: strain not given.
The next assay has as its system anaerobic bacteria. Put plainly: Agar dilution method for anaerobic bacteria, summary. It counts as cell-based. (Agar dilution tests growth on a series of plates holding different concentrations.)
A further assay relates to Clostridium perfringens. Put plainly: microbe, parasite or virus in culture. It counts as cell-based. The note with it: Clostridium perfringens, read-out: MIC Clostridium perfringens, single isolates, anaerobic agar dilution.
The test system of a further assay is Bacteroides fragilis. Put plainly: Agar dilution MIC, anaerobes. In kind it is cell-based. The note with it: Bacteroides fragilis, single isolates, anaerobic agar dilution; read-out: MIC Bacteroides fragilis.
A further assay concerns Prevotella bivia. Put plainly: Agar dilution MIC, anaerobes. It counts as cell-based. The note with it: Prevotella bivia; single isolate, anaerobic agar dilution; read-out: MIC Prevotella bivia.
Assay [2] concerns Prevotella melaninogenica. Put plainly: Agar dilution MIC, anaerobes. The following applies: single isolates, anaerobic agar dilution. It counts as cell-based.
The test system of the next assay is Fusobacterium varium. Put plainly: Agar dilution MIC, anaerobes. In kind it is cell-based. The note with it: Fusobacterium varium, single isolates, anaerobic agar dilution; read-out: MIC Fusobacterium varium.
Assay [3] deals with Peptostreptococcus prevotii. Put plainly: Agar dilution MIC, anaerobes. The following applies: Anaerococcus prevotii, single isolates, anaerobic agar dilution; read-out: MIC Peptostreptococcus prevotii. It counts as cell-based.
The test system of a further assay is MRSE 879. Put plainly: Broth MIC, MRSE 879. In kind it is cell-based. The following applies: Staphylococcus epidermidis; MRSE 879; read-out: broth MIC.
A further assay has as its system MRSA 562. Put plainly: MIC, agar incorporation method. The following applies: Staphylococcus aureus, MRSA.
For a further assay, the system named is S. aureus. Put plainly: Summary of in vitro activity (MIC). The following applies: Staphylococcus aureus.
Assay [4] concerns Mycobacterium tuberculosis. Put plainly: microbe, parasite or virus in culture. The note with it: 504 h.

As to `CC(=O)NC[C@H]1CN(c2ccc(N3CCOCC3)c(F)c2)C(=O)O1` [Linezolid], in assay [1] (+50% sheep serum), the “Broth MIC +50% Sheep serum” value turned out to be 2 µg/mL. The “Broth MIC Normal MH broth” value in assay [1] (normal MH broth) was 1 µg/mL. Also, the MIC50 against anaerobic bacteria (48 h) was determined as 1 µg/mL (≈ 2.96 µM); in the assay on S. aureus it was 2 µg/mL (≈ 5.93 µM); in assay [4] it was 8 µg/mL (≈ 23.7 µM). For the same compound, the MIC90 was found to be 4 µg/mL (≈ 11.9 µM) in the assay with anaerobic bacteria (48 h), 4 µg/mL (≈ 11.9 µM) against S. aureus and 64 µg/mL (≈ 190 µM) in [4]. Further, the “Geometric Mean” value in the assay on anaerobic bacteria (anaerobes) turned out to be 1.134 µg/mL. Moreover, in the assay with anaerobic bacteria (anaerobes), the “MIC Range” value was 0.25 to 4 µg/mL. The MIC worked out at 2 µg/mL (≈ 5.93 µM) in the assay with Clostridium perfringens; 4 µg/mL (≈ 11.9 µM) in the assay on Bacteroides fragilis; 1 µg/mL (≈ 2.96 µM) in the assay on Prevotella bivia; 1 µg/mL (≈ 2.96 µM) in [2] (Prevotella melaninogenica, read-out: MIC Prevotella melaninogenica); 1 µg/mL (≈ 2.96 µM) with Fusobacterium varium; 0.5 µg/mL (≈ 1.48 µM) in assay [3]. Besides, the MIC worked out at 2 µg/mL (≈ 5.93 µM) in the assay on MRSE 879, 2 µg/mL (≈ 5.93 µM) with MRSA 562, 2 µg/mL (≈ 5.93 µM) with MRSA 562 (read-out: MIC MRSA 562) and 2.38 µg/mL (≈ 7.05 µM) in the assay with S. aureus (read-out: Geometric Mean of in vitro activity (MIC)). For the same compound, the “MIC Prevotella melaninogenica” value in [2] is 2 µg/mL (≈ 5.93 µM).

Values taken from patent US20040254162A1, “Oxazolidinone derivatives as antimicrobials” (priority 2001, published 2004).
